Results published in patent publication US7829578B1, “Aromatic ketones and uses thereof” (Oregon Health & Science University, priority 2005, dated 2010).
Like-named read-outs stand apart in the source and are kept apart here.

Columns and labels:
Format in all cases: cell-based
[1] = tested on: drug susceptible (D6) strain of Plasmodium falciparum; test: In vitro antimalarial MSF (SyBrGreen I fluorescence) assay, D6 strain
Method: (§1) Four different laboratory strains of P. falciparum were cultured in human erythrocytes by standard methods under a low oxygen atmosphere (5% O2, 5% CO2, 90% N2) in an environmental chamber. The culture medium was RPMI 1640, supplemented with 25 mM Hepes buffer, 25 mg/liter gentamicin sulfate, 45 mg/liter hypoxanthine, 10 mM glucose, 2 mM glutamine, and 0.5% Albumax II (complete medium). The parasites were maintained in fresh human erythrocytes suspended at a 2% hematocrit in complete medium at 37° C. Stock cultures were sub-passaged every 3 to 4 days by transfer of infected red cells to a flask containing complete medium and uninfected erythrocytes.
(§2) In vitro antimalarial activity of the test compounds was assessed by a fluorescence-based method described previously (Smilkstein et al., 2004, Antimicrobial Agents and Chemotherapy, Vol. 48, pgs. 1803-1806) (reference format?). The studies were set up in triplicate in 96 well plates with two-fold dilutions of each test compound across the plate in a total volume of 100 μl and at a final red blood cell concentration of 2% (v/v). Stock solutions of each drug were prepared by dissolving in DMSO at 10 mM. […] In every case, an additional determination was performed to ensure bracketing of the IC50 value by at least an order of magnitude.
(§3) Automated pipeting and dilution was carried out by a programmable Precision 2000 robotic station (Bio-Tek, Winooski, Vt.). An initial parasitemia of 0.2% was attained by addition of normal uninfected red cells to a stock culture of asynchronous parasite infected red cells (PRBC). The plates were incubated for 72 hrs at 37° C. in an atmosphere of 5% CO2, 5% O2, and 90% N2. After this period, the SyBrGreen I dye-detergent mixture (100 μl) was added and the plates were incubated at room temperature for an hour in the dark and then placed in a 96-well fluorescence plate reader (Gemini-EM, […]) for analysis with excitation and emission wavelength bands centered at 497 and 520 nm, respectively.

[2] = tested on: multi-drug resistant (Dd2) strain of Plasmodium falciparum; test: In vitro antimalarial MSF (SyBrGreen I fluorescence) assay, Dd2 strain; settings: Table 2, 72 hrs, average of at least 3 experiments
Method: as §1, §2, §3

[3] = tested on: Murine splenic lymphocytes; test: MSLCs-concanavalin A induced proliferation (blastogenesis) cytotoxicity assay, Alamar Blue fluorescence; settings: Table 2, 24-hr MSLCs-concanavalin A induced proliferation
Method: *Data are the average of at least 3 independent experiments, each performed in triplicate with the aid of a Precision 2000 robotic pipeting station. IC50 values were determined by the MSF assay. […] MSLCs=Murine splenic lymphocytes. Cytotoxicity was determined using a 24-hr MSLCs-concanavalin A induced proliferation assay using the Alamar Blue fluorescence method. IVTI=in vitro therapeutic index calculated from the ratio of IC50 values based on the cytotoxicity observed in the blastogenesis assay and the antimalarial potency against the D6 strain of P. falciparum. NT=not tested.
*Data are the average of at least 3 independent experiments, each performed in triplicate with the aid of a Precision 2000 robotic pipeting station. IC50 values were determined by the MSF assay (Smilkstein et al., AAC, 2004). MSLCs=Murine splenic lymphocytes. Cytotoxicity was determined using a 48-hr MSLCs-concanavalin A induced proliferation assay using the Alamar Blue fluorescence method. IVTI=in vitro therapeutic index calculated from the ratio of IC50 values of the cytotoxicity observed in the blastogenesis assay and antimalarial potency against the D6 strain of P. falciparum. NA=not applicable; ND=not determined.

[4] = Table 2, MSF assay, 72 hrs, average of at least 3 experiments, read-out: D6 IC50
[5] = Plasmodium falciparum, D6, Table 4, MSF assay, read-out: D6 IC50
[6] = Plasmodium falciparum, D6, strain not given, read-out: IC50 value of parent compound used for comparison

Structure (SMILES) | IC50 [1, 4] [nM] | IC50 [2] [nM] | IC50 [3] [nM] | other results
O=c1c2ccccc2[nH]c2cc(OCCCCC(F)(F)F)ccc12 [compound 20] | 0.5 | 0.3 | > 25000 | 
O=c1c2ccc(Cl)cc2[nH]c2cc(OCCCCCCCC(F)(F)F)ccc12 [compound 28] | 0.16 | 0.17 | > 25000 | 
O=C1C=C(CCCCCC(F)(F)F)C(=O)c2ccccc21 [compound 49] |  |  |  | IC50 [1, 5]: 823 nM
COc1ccc2c(=O)cc(C)[nH]c2c1 [No. 43, 2-methyl-7-methoxy-4-(1H)-quinolone] |  |  |  | IC50 [1, 6]: > 2500 nM
COc1ccc2c(=O)c3ccc(Cl)cc3[nH]c2c1 [compound 13] | 76 | 192 | > 25000 | 
O=c1c2ccc(O)cc2[nH]c2cc(Cl)ccc12 [compound 14] | 2200 | 9200 | 14000 | 
O=c1c2ccc(O)cc2oc2cc(O)ccc12 [No. 52, 3,6-dihydroxyxanthone, reference compound] |  |  |  | IC50 ([1]; Plasmodium falciparum, D6, read-out: IC50 value of parent compound used for comparison): > 100000 nM
O=c1c2ccc(Cl)cc2oc2cc(OCCCCC(F)(F)F)ccc12 [compound 19] | 16000 | 18000 | > 25000 | 
C=CC1CN2CCC1CC2C(O)c1ccnc2ccc(OC)cc12 (centres unmarked) [compound 37] | 11 | 68 | 23000 | 
O=c1c2ccc(Cl)cc2[nH]c2cc(OCCCCCCCCCCC(F)(F)F)ccc12 [compound 30] | 0.023 | 0.025 | > 25000 | 
O=c1c2ccc(Cl)cc2[nH]c2cc(OCCCCCCCCO)ccc12 [compound 29] | 2.2 | 3.5 | > 25000 | 
O=c1c2ccc(O)cc2oc2cc(OCCCCCC(F)(F)F)ccc12 [compound 11] | 46 | 40 | > 25000 | 
O=C1c2ccccc2Cc2ccc(OCCCCCC(F)(F)F)cc21 [compound 55] |  |  |  | IC50 [1, 5]: 510 nM
O=C1c2ccc(OCCCCCC(F)(F)F)cc2C(=O)c2ccc(O)cc21 [compound 15] | 27 | 54 | > 25000 | 
O=c1c2ccc(Cl)cc2[nH]c2cc(OCCCCCC(F)(F)F)ccc12 [compound 21] | 0.06 | 0.07 | > 25000 | 
O=C1C=C(OCCCCC(F)(F)F)C(=O)c2ccccc21 [compound 35] | 32 | 35 | 14000 | 
O=C1C=C(O)C(=O)c2ccccc21 [compound 47] |  |  |  | IC50 [1, 5]: 1800 nM
O=c1c2ccc(Cl)cc2[nH]c2ccc(OCCCCCBr)cc12 [compound 10] | 70 | 152 | 12000 | 
O=c1c2ccc(OCCCCCC(F)(F)F)cc2[nH]c2cc([N+](=O)[O-])ccc12 [compound 33] | 3.2 | 5.8 | > 25000 | 
O=c1c2ccc(Cl)cc2[nH]c2cc(OCCCC(F)(F)F)ccc12 [compound 17] | 1 | 1.2 | > 25000 | 
COc1ccc2[nH]c3cc(Cl)ccc3c(=O)c2c1 [compound 7] | 45 | 65 | > 25000 | 
O=c1c2ccc(O)cc2[nH]c2cc(Cl)ccc12 [No. 14, 3-hydroxy-6-chloroacridone] |  |  |  | IC50 [1, 6]: > 2200 nM

Structure (SMILES) | IC50 [1, 4] [nM] | IC50 [2] [nM] | IC50 [3] [nM] | other results
Nc1c2ccc(Cl)cc2nc2cc(OCCCCCC(F)(F)F)ccc12 [compound 32] | 2.9 | 10 | 250 | 
O=c1c2ccccc2[nH]c2c(OCCCCCC(F)(F)F)cccc12 [compound 27] | 446 | 515 | > 25000 | 
O=c1c2ccc(O)cc2oc2cc(OCCCCCC(F)(F)F)ccc12 [compound 53] |  |  |  | IC50 [1, 5]: 780 nM
O=C1C=C(OCCCCCC(F)(F)F)C(=O)c2ccccc21 [compound 12] | 67 | 95 | 5600 | 
O=C1c2ccccc2Cc2ccc(O)cc21 [compound 54] |  |  |  | IC50 [1, 5]: 8300 nM
O=c1c2ccccc2[nH]c2ccc(OCCCCCC(F)(F)F)cc12 [compound 25] | 36 | 49 | > 25000 | 
O=c1c2ccc(Cl)cc2[nH]c2cc(OCCCCC(F)(C(F)(F)F)C(F)(F)F)ccc12 [compound 24] | 0.0015 |  | > 25000 | 
COc1ccc2nc3cc(Cl)ccc3c(N)c2c1 [compound 9] | 18 | 42 | 450 | 
O=c1c2ccc(Cl)cc2[nH]c2cc(OCCCCCCl)ccc12 [compound 16] | 12 | 13 | > 25000 | 
O=c1c2ccccc2[nH]c2cc(O)ccc12 [compound 6] | 2000 | 504 | > 25000 | 
O=c1c2ccc(Cl)cc2[nH]c2cc(OCCCCC(F)(F)F)ccc12 [compound 18] | 0.3 | 0.5 | > 25000 | 
CCN(CC)CCCC(C)Nc1ccnc2cc(Cl)ccc12 (racemic) [compound 36] | 7.8 | 102 | 3900 | 
OC(c1cc(C(F)(F)F)nc2c(C(F)(F)F)cccc12)C1CCCCN1 (racemic) [compound 38] | 5.9 | 8.8 | 4800 | 
O=c1c2ccccc2[nH]c2ccc(O)cc12 [compound 5] | 9000 | 4400 | > 25000 | 
O=c1c2ccc(Cl)cc2[nH]c2cc(OCCCCC(F)(F)C(F)(F)F)ccc12 [compound 23] | 0.02 | 0.02 | > 25000 | 
Nc1ccc2c(=O)c3ccc(OCCCCCC(F)(F)F)cc3[nH]c2c1 [compound 34] |  |  | > 25000 | 
CC1CCC2C(C)C(=O)OC3OC4(C)CCC1C32OO4 (centres unmarked) [compound 39] | 0.65 | 0.9 | > 25000 | 
Cn1c2cc(Cl)ccc2c(=O)c2ccc(OCCCCC(F)(F)F)cc21 [compound 31] | 4000 | 3500 | > 25000 | 
O=C1C=C(OCCCCC(F)(F)F)C(=O)c2ccccc21 [compound 48] |  |  |  | IC50 [1, 5]: 51.1 nM
O=c1c2ccc(Cl)cc2[nH]c2ccc(OCCCCCC(F)(F)F)cc12 [compound 22] | 10 | 15 | > 25000 | 
O=C1C=C(O)C(=O)c2ccccc21 [No. 47, 2-hydroxy-1,4-naphthoquinone, reference compound] |  |  |  | IC50 [1, 6]: ~1800 nM
O=c1c2ccc(O)cc2oc2cc(O)ccc12 [compound 52] |  |  |  | IC50 ([1]; Plasmodium falciparum, D6, read-out: D6 IC50, nM): > 100000 nM
